The text below walks through data of patent US20250320224A1 (DOMAIN THERAPEUTICS, priority 2022, published 2025).

As usually defined, the IC50 is the point on the concentration scale where inhibition reaches its midpoint.

Some results are limits rather than exact numbers.

The assay addresses T1, human PAR-2 (hPAR-2) receptor (Homo sapiens, UniProt P55085).
T1 construct: expressed in HEK-293 cells in an endogenous manner; endogenous in cells; host or cells: HEK-293
T1 sequence (P55085 26-397): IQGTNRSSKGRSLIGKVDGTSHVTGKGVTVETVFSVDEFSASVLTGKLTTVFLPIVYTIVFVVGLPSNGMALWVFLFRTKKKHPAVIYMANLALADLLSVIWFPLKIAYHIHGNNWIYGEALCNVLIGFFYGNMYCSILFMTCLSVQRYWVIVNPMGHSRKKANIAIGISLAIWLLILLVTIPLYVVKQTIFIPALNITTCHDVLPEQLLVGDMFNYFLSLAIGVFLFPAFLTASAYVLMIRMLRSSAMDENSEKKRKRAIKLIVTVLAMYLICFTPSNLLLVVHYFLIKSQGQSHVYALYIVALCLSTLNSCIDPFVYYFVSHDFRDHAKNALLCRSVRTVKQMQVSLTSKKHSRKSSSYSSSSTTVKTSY
The assay can be described thus: In vitro human PAR-2 functional antagonist activity using calcium assays. In kind it is cell-based. To be noted: hPAR-2 endogenously expressed in HEK-293 cells; stimulated by 2-Furoyl-LIGRLO-NH2 peptide; Fluo4AM intracellular calcium, FLIPR Tetra. In a few lines:
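HEK-293 cells with endogenous hPAR-2 were loaded with Fluo4AM and read for intracellular Ca2+ on FLIPR. After 10 min with compound alone, cells were stimulated with 2-Furoyl-LIGRLO-NH2 at the concentration giving 80% of maximal response. Inhibition was then recorded over 5 min relative to buffer and agonist-only signals.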
In general terms: A change in cytosolic calcium serves as a functional read-out for many receptors and channels.
`Cc1cc(N2CCN(C(=O)c3cnc4c(n3)C(C)(C)CN4c3ccc(Cl)c(Cl)c3)C(C)(C)C2)nc(C)c1C(=O)O` [Example 249, 6-(4-(5-(3,4-dichlorophenyl)-7,7-dimethyl-6,7-dihydro-5H-pyrrolo[2,3-b]pyrazine-2-carbonyl)-3,3-dimethylpiperazin-1-yl)-2,4-dimethylnicotinic acid]: the IC50 is below 500 nM.

With `Cc1ccc(N2CC(C)(C)c3nc(C(=O)N4CCN(c5ccc(CC(=O)O)cn5)CC4(C)C)cnc32)cc1Cl` [Example 251, 2-(6-(4-(5-(3-chloro-4-methylphenyl)-7,7-dimethyl-6,7-dihydro-5H-pyrrolo[2,3-b]pyrazine-2-carbonyl)-3,3-dimethylpiperazin-1-yl)pyridin-3-yl)acetic acid], the IC50 was below 500 nM.

Consider `COC1c2nc(C(=O)N3CCN(c4ccc(CC(=O)O)cn4)CC3(C)C)ccc2N(c2ccc(Cl)c(F)c2)CC1(C)C` (stereo not shown) [Example 253, 2-(6-(4-(5-(4-chloro-3-fluorophenyl)-8-methoxy-7,7-dimethyl-5,6,7,8-tetrahydro-1,5-naphthyridine-2-carbonyl)-3,3-dimethylpiperazin-1-yl)pyridin-3-yl)acetic acid], for which the IC50 was in the range of 500 to 10000 nM.

As for `COc1cc2c(nc1C(=O)N1CCN(c3ccc(CC(=O)O)cn3)CC1(C)C)C(C)(C)CN2c1ccc(Cl)c(F)c1` [Example 255, 2-(6-(4-(1-(4-chloro-3-fluorophenyl)-6-methoxy-3,3-dimethyl-2,3-dihydro-1H-pyrrolo[3,2-b]pyridine-5-carbonyl)-3,3-dimethylpiperazin-1-yl)pyridin-3-yl)acetic acid], the IC50 was above 10000 nM.

For the molecule `CC(C)CN1CC(C)(c2ccc(Cl)c(F)c2)c2ccc(C(=O)N3CCN(c4ccc(CC(=O)O)cn4)CC3(C)C)nc21` (stereo not shown) [Example 257, 2-(6-(4-(3-(4-chloro-3-fluorophenyl)-1-isobutyl-3-methyl-2,3-dihydro-1H-pyrrolo[2,3-b]pyridine-6-carbonyl)-3,3-dimethylpiperazin-1-yl)pyridin-3-yl)acetic acid], the IC50 was in the range of 500 to 10000 nM.

As to `CC1(C)CN(c2ccc(Cl)c(F)c2)c2cc(O)c(C(=O)N3CCN(c4ccc(CC(=O)O)cn4)CC3(C)C)nc21` [Example 258, 2-(6-(4-(1-(4-chloro-3-fluorophenyl)-6-hydroxy-3,3-dimethyl-2,3-dihydro-1H-pyrrolo[3,2-b]pyridine-5-carbonyl)-3,3-dimethylpiperazin-1-yl)pyridin-3-yl)acetic acid], the IC50 is 500 to 10000 nM.

`COC(=O)CCCCCCC(=O)N1CCN(C(=O)c2cnc3c(n2)C2(CN3c3ccc(Cl)c(F)c3)CC(C)(C)C2)C(C)(C)C1` [Example 259, methyl 8-(4-(5′-(4-chloro-3-fluorophenyl)-3,3-dimethyl-5′,6′-dihydrospiro[cyclobutane-1,7′-pyrrolo[2,3-b]pyrazine]-2′-carbonyl)-3,3-dimethylpiperazin-1-yl)-8-oxooctanoate]: the concentration for half-maximal inhibition (IC50) was below 500 nM.

As to `CC1(C)CC2(CN(c3ccc(Cl)c(F)c3)c3ncc(C(=O)N4CCN(C(=O)CCCCCCC(=O)O)CC4(C)C)nc32)C1` [Example 260, 8-(4-(5′-(4-chloro-3-fluorophenyl)-3,3-dimethyl-5′,6′-dihydrospiro[cyclobutane-1,7′-pyrrolo[2,3-b]pyrazine]-2′-carbonyl)-3,3-dimethylpiperazin-1-yl)-8-oxooctanoic acid], the IC50 was below 500 nM.

In the case of `CCCCCCCCCCCCCCCC(=O)N(C)CCN(C)C(=O)CCOCCOCCOCCNC(=O)CCOCCOCCOCCNC(=O)CCCCCCC(=O)N1CCN(C(=O)c2cnc3c(n2)C2(CN3c3ccc(Cl)c(F)c3)CC(C)(C)C2)C(C)(C)C1` [Example 261, N-(37-(4-(5′-(4-chloro-3-fluorophenyl)-3,3-dimethyl-5′,6′-dihydrospiro[cyclobutane-1,7′-pyrrolo[2,3-b]pyrazine]-2′-carbonyl)-3,3-dimethylpiperazin-1-yl)-3-methyl-4,17,30,37-tetraoxo-7,10,13,20,23,26-hexaoxa-3,16,29-triazaheptatriacontyl)-N-methylpalmitamide], the IC50 lay in the range of 500 to 10000 nM.

`Cc1cc(N2CCN(C(=O)c3cnc4c(n3)C(C)(C)CN4c3ccc(Cl)c(F)c3)C(C)(C)C2)c(C(=O)O)c(C)n1` [Example 263, 4-(4-(5-(4-chloro-3-fluorophenyl)-7,7-dimethyl-6,7-dihydro-5H-pyrrolo[2,3-b]pyrazine-2-carbonyl)-3,3-dimethylpiperazin-1-yl)-2,6-dimethylnicotinic acid]: the IC50 was above 10000 nM.

`CC1(C)CN(c2ccc(Cl)c(F)c2)c2ccc(C(=O)N3CCN(c4ccc(CC(=O)O)cn4)CC3(C)C)nc2O1` [Example 265, 2-(6-(4-(1-(4-chloro-3-fluorophenyl)-3,3-dimethyl-2,3-dihydro-1H-pyrido[2,3-b][1,4]oxazine-6-carbonyl)-3,3-dimethylpiperazin-1-yl)pyridin-3-yl)acetic acid]: the half-maximal inhibitory concentration (IC50) is above 10000 nM.

For `CC1(C)CC2(CN(c3ccc(Cl)c(F)c3)c3ncc(S(=O)(=O)N4CCC(N5CCNC5=O)CC4)nc32)C1` [Example 266, 1-(1-((5′-(4-chloro-3-fluorophenyl)-3,3-dimethyl-5′,6′-dihydrospiro[cyclobutane-1,7′-pyrrolo[2,3-b]pyrazin]-2′-yl)sulfonyl)piperidin-4-yl)imidazolidin-2-one], the IC50 was above 10000 nM.

In the case of `CC1(C)CN(c2ccc(Cl)c(F)c2)c2ncc(C(=O)N3CCN(c4ccc(CC(=O)O)cn4)CC3(C)C)nc2O1` [Example 268, 2-(6-(4-(4-(4-chloro-3-fluorophenyl)-2,2-dimethyl-3,4-dihydro-2H-pyrazino[2,3-b][1,4]oxazine-7-carbonyl)-3,3-dimethylpiperazin-1-yl)266yridine-3-yl)acetic acid], the half-maximal inhibitory concentration (IC50) is above 10000 nM.

Take `CC1(C)CN(c2ccc(Cl)c(F)c2)Cc2sc(C(=O)N3CCN(c4ccc(CC(=O)O)cn4)CC3(C)C)nc21` [Example 270, 2-(6-(4-(5-(4-chloro-3-fluorophenyl)-7,7-dimethyl-4,5,6,7-tetrahydrothiazolo[5,4-c]pyridine-2-carbonyl)-3,3-dimethylpiperazin-1-yl)pyridin-3-yl)acetic acid]: the half-maximal inhibitory concentration (IC50) was in the range of 500 to 10000 nM.

Turning to `CC1(C)CN(c2ccc(Cl)c(F)c2)Cc2cn(C(=O)N3CCN(c4ccc(CC(=O)O)cn4)CC3(C)C)nc21` [Example 273, 2-(6-(4-(5-(4-chloro-3-fluorophenyl)-7,7-dimethyl-4,5,6,7-tetrahydro-2H-pyrazolo[4,3-c]pyridine-2-carbonyl)-3,3-dimethylpiperazin-1-yl)pyridin-3-yl)acetic acid], the IC50 is 500 to 10000 nM.

In the case of `Cc1cc(N2CCN(C(=O)c3ccc4c(n3)C(C)(C)CN4c3ccc(C(F)(F)F)c(F)c3)C(C)(C)C2)nc(C)c1C(=O)O` [Example 275, 6-(4-(1-(3-fluoro-4-(trifluoromethyl)phenyl)-3,3-dimethyl-2,3-dihydro-1H-pyrrolo[3,2-b]pyridine-5-carbonyl)-3,3-dimethylpiperazin-1-yl)-2,4-dimethylnicotinic acid], the IC50 was below 500 nM.

Take `Cc1cc(N2CCN(C(=O)c3cnc4c(n3)C(C)(C)CN4c3cc(F)c(F)c(F)c3)C(C)(C)C2)nc(C)c1C(=O)O` [Example 277, 6-(4-(7,7-dimethyl-5-(3,4,5-trifluorophenyl)-6,7-dihydro-5H-pyrrolo[2,3-b]pyrazine-2-carbonyl)-3,3-dimethylpiperazin-1-yl)-2,4-dimethylnicotinic acid]: the IC50 was below 500 nM.

Take `Cc1cc(N2CCN(C(=O)c3ccc4c(n3)C(C)(C)CN4c3ccc(C4CC4)cc3)C(C)(C)C2)nc(C)c1C(=O)O` [Example 279, 6-(4-(1-(4-cyclopropylphenyl)-3,3-dimethyl-2,3-dihydro-1H-pyrrolo[3,2-b]pyridine-5-carbonyl)-3,3-dimethylpiperazin-1-yl)-2,4-dimethylnicotinic acid]: the half-inhibitory concentration (IC50) was below 500 nM.

Turning to `CC1(C)CC2(CN(c3ccc(F)c(F)c3)c3ncc(C(=O)N4CCNC(=O)C4(C)C)nc32)C1` [Example 282, 4-(5′-(3,4-difluorophenyl)-3,3-dimethyl-5′,6′-dihydrospiro[cyclobutane-1,7′-pyrrolo[2,3-b]pyrazine]-2′-carbonyl)-3,3-dimethylpiperazin-2-one], the IC50 was below 500 nM.
